Reference: patent publication US10577349B2 (Sanford Burnham Prebys Medical Discovery Institute, priority 2015, dated 2020)
Values after ≈ are worked out from the molar mass of the structure shown. Like-named read-outs stand apart in the source and are kept apart here.

How the values were obtained:
[1] = target: HCV cap-dependent translation; experiment: In vitro translation assay, FF-HCV-Ren construct, cap-dependent (FF luciferase); assay type: biochemical, rabbit reticulocyte lysates
Summary of the method: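 First, reticulocyte lysate mixed 1:1 with -Met and -Leu translation mixes is exposed to compound for 1 h at room temperature. Next, 0.1 μg reporter RNA is added and translation runs 2 h at 30° C. Finally, sequential Dual-Glo reagents give firefly then Renilla luminescence.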

Compound 38 PK Study = assay type: in vivo, C57Bl/6J mice; details: male, C57Bl/6J, mouse, plasma
Protocol: Method: Fasted male C57Bl/6J mice were dosed with a 1 mg/mL solution of Compound 38 in 10% DMSO, 10% Tween-80 and 80% water by intravenous injection (2 mg/kg, as a 0.4 mg/mL solution), oral gavage (10 mg/kg as a 1 mg/mL solution) or intraperitoneal injection (10 mg/kg as a 1 mg/mL solution). Plasma was collected at various time points and analyzed by LC/MS/MS to determine compound levels.

[2] = tested on: UACC903 and A375 cell lines; experiment: Western blot validation of RPPA data; assay type: cell-based, human
Protocol: Cells were rinsed with PBS and lysed in culture plates with lysis buffer (50 mM Tris-HCl, pH 7.4, 150 mM NaCl, 1% NP-40, 1 mM EDTA, 10 μg/ml aprotinin, 1 μg/ml pepstatin A, 10 μg/ml leupeptin, 1 mM phenylmethylsulfonyl fluoride, and 1 mM sodium orthovanadate). Protein concentration was determined using Coomassie Plus Protein Assay Reagent (Thermo Scientific). Equal amounts of cell lysate proteins (50 μg) were resolved by SDS-PAGE and transferred to polyvinylidene difluoride membranes (PerkinElmer Life Sciences). Membranes were blocked with 5% BSA/TBST for 1 h and incubated with primary antibodies for 1 h at room temperate or overnight at 4° C., with shaking. Following three TBST washes, membranes were incubated for 1 h at room temperature with goat anti-rabbit Alexa Fluor 680 F(ab′)2 or goat anti-mouse IRDye 800 F(ab′)2 diluted 1:10,000. Bound antibodies were detected using the Odyssey Infrared Imaging System (LiCor Biosciences), or by exposing them to X-ray blue film.
A reverse phase protein array (RPPA) analysis of BRAF- and NRAS-mutant melanomas was performed to identify protein networks affected by Compound 38 (Table 4).

[3] = Aqueous Solubility in pION's buffer; assay type: physicochemical
[4] = Hepatic Microsome Stability Human; assay type: in vitro ADME
eIF4F complex = target: T1, eIF4F complex (Homo sapiens, UniProt Q04637); experiment: m7GTP pull-down assay, BRAFi-sensitive and -resistant melanoma cells; assay type: cell-based
T1 construct: PLX4032), or Compound 38; endogenous in cells; host or cells: A375, A375R, Lu1205R, WM793R melanoma cells
Protocol: As previously described (Dowling R J, et al. mTORC1-mediated cell proliferation, but not cell growth, controlled by the 4E-BPs. Science. 2010; 328:1172-6), cells growing in 100 mm plates were washed (cold PBS), collected, and lysed in 50 mM MOPS/KOH (7.4), 100 mM NaCl, 50 mM NaF, 2 mM EDTA, 2 mM EGTA, 1% NP40, 1% Na-DOC, 7 mM β-mercaptoethanol, protease inhibitors and phosphatase inhibitor cocktail (Roche). Lysates were incubated with m7-GDP-agarose beads (Jena Bioscience) for 20 minutes, washed 4 times with the washing buffer containing 50 mM MOPS/KOH (7.4), 100 mM NaCl, 50 mM NaF, 0.5 mM EDTA, 0.5 mM EGTA, 7 mM (3-mercaptoethanol, 0.5 mM PMSF, 1 mM Na3VO4 and 0.1 mM GTP, and bound proteins were eluted by boiling the beads in loading buffer. m7-GDP-agarose pulled down material was analyzed by Western blot analysis.
As levels of the eIF4F complex inversely correlate with the effectiveness of various cancer therapies, the integrity of the eIF4F complex after treating melanoma cells with a combination of BRAFi vemurafenib (PLX4032) and Compound 38 was assessed. […] A375 and A375R (PLX4032-resistant) cells were treated with vehicle (DMSO), a BRAFi (vemurafenib; PLX4032), or Compound 38 at the indicated doses for 24 hours. Cell lysates ([…]) were subjected to m^7GTP pull-down. Amounts of the indicated proteins in input (5%) or pull-down (50%) samples were determined by Western blotting; 3-actin served as a loading control (input) and to exclude contamination (m^7GTP pull-down).

SMILES: O=C(/C=C/c1cncc(F)c1)c1c(-c2ccccc2)c2cc(Cl)ccc2[nH]c1=O [Compound 38, 6-Chloro-3-[3-(5-fluoro-pyridin-3-yl)-acryloyl]-4-phenyl-1H-quinolin-2-one]
- IC50 [1]: 2 to 10 µM
- half-life (Compound 38 PK Study): 2.95 h
- clearance (Compound 38 PK Study; IV 2 mg/kg): 67 mL/min/kg
- bioavailability (Compound 38 PK Study; oral gavage 10 mg/kg): 20%
- Western blot: phosphorylation of S6, mTOR, P70S6K, TSC2 and 4E-BP1 [2]: dose dependent inhibitory effects
- solubility ([3]; aqueous buffer, pH 5.0, read-out: Aqueous Solubility in pION's buffer pH 5.0): 6.5 µg/mL (≈ 16.1 µM)
- solubility ([3]; pH 6.2, aqueous buffer, read-out: Aqueous Solubility in pION's buffer pH 6.2): 6.6 µg/mL (≈ 16.3 µM)
- solubility ([3]; pH 7.4, aqueous buffer, read-out: Aqueous Solubility in pION's buffer pH 7.4): 5.5 µg/mL (≈ 13.6 µM)
- Hepatic Microsome Stability (% Remaining at 1 hr) Human [4]: 24.12 % Remaining
- Hepatic Microsome Stability (% Remaining at 1 hr) Human (no NADPH) ([4]; no NADPH): 57.84 % Remaining
- dissociation of eIF4G1 from eIF4E in BRAFi-resistant cells (eIF4F complex; A375R, Lu1205R and WM793R cells): significantly promoted a dose dependent dissociation of eIF4G1 from eIF4E
- eIF4G1 association with eIF4E (eIF4F complex; A375 and A375R, 24 hours): more robust effect
- amount of eIF4G1 bound to eIF4E, Compound 38/BRAFi combination (eIF4F complex; combination with BRAFi PLX4032, not seen following BRAFi treatment alone): decreased the amount of eIF4G1 bound to eIF4E
